Measurements as given in patent US9539298B2, “Lissencephaly therapeutic agent” (OSAKA CITY UNIVERSITY, priority 2010, dated 2017).

| melting point [°C] | SMILES |
| --- | --- |
| 109.7 to 111.1 | COCCOC(=O)N[C@@H](CC(C)C)C(=O)N[C@@H](CCc1ccccc1)C(=O)C(=O)NC1CC1 [compound 15, ((1S)-1-((((1S)-2,3-Dioxo-3-cyclopropylamino-1-(phenylethyl)propyl)amino)carbonyl)-3-methylbutyl)carbamic acid 2-methoxyethyl ester] |
| 152.5 to 153.9 | COCCOC(=O)N[C@@H](CC(C)C)C(=O)N[C@@H](Cc1ccccc1)C(=O)C(=O)NCC(F)(F)F [compound 10, ((1S)-1-((((1S)-1-Benzyl-2,3-dioxo-3-(2,2,2-trifluoroethylamino)propyl)amino)carbonyl)-3-methylbutyl)carbamic acid 2-methoxyethyl ester] |
| 127 to 127.9 | COCCNC(=O)C(=O)[C@H](Cc1ccccc1)NC(=O)[C@H](CC(C)C)NC(=O)OCCOC [compound 12, ((1S)-1-((((1S)-1-Benzyl-2,3-dioxo-3-(2-methoxyethylamino)propyl)amino)carbonyl)-3-methylbutyl)carbamic acid 2-methoxyethyl ester] |
| 119.1 to 120.4 | CCNC(=O)C(=O)[C@H](CCc1ccccc1)NC(=O)[C@H](CC(C)C)NC(=O)OCCOC [compound 13, ((1S)-1-((((1S)-2,3-Dioxo-3-ethylamino-1-(phenylethyl)propyl)amino)carbonyl)-3-methylbutyl)carbamic acid 2-methoxyethyl ester] |
| 53.3 to 54.1 | COCCOCCOC(=O)N[C@@H](CC(C)C)C(=O)N[C@@H](CC(C)C)C(=O)C(=O)NCCOc1ccccc1 [compound 22, ((1S)-1-((((1S)-2,3-Dioxo-1-(2-methylpropyl)-3-(2-phenoxyethyl)aminopropyl)amino)carbonyl)-3-methylbutyl) carbamic acid 5-methoxy-3-oxapentyl ester] |

Second part, the molecule before the results:

| SMILES | melting point [°C] |
| --- | --- |
| CCNC(=O)C(=O)[C@H](Cc1ccccc1)NC(=O)[C@H](CC(C)C)NC(=O)OCCOC [compound 1, ((1S)-1-((((1S)-1-Benzyl-2,3-dioxo-3-(ethylamino)propyl)amino)carbonyl)-3-methylbutyl) carbamic acid 2-methoxyethyl ester] | 138 to 138.3 |
| CCNC(=O)C(=O)[C@H](Cc1ccccc1)NC(=O)[C@H](CC(C)C)NC(=O)O[C@H]1CCOC1 [compound 2, ((1S)-1-((((1S)-1-Benzyl-2,3-dioxo-3-(ethylamino)propyl)amino)carbonyl)-3-methylbutyl)carbamic acid (3S)-tetrahydrofuran-3-yl ester] | 158.9 to 160.7 |
| CCCCNC(=O)C(=O)[C@H](Cc1ccccc1)NC(=O)[C@H](CC(C)C)NC(=O)OCCOC [compound 9, ((1S)-1-((((1S)-1-Benzyl-3-butylamino-2,3-dioxopropyl)amino)carbonyl)-3-methylbutyl)carbamic acid 2-methoxyethyl ester] | 94 to 95.2 |
| COCCOC(=O)N[C@@H](CC(C)C)C(=O)N[C@@H](Cc1ccccc1)C(=O)C(=O)NC1CCC1 [compound 8, ((1S)-1-((((1S)-1-Benzyl-2,3-dioxo-3-(cyclobutylamino)propyl)amino)carbonyl)-3-methylbutyl)carbamic acid 2-methoxyethyl ester] | 114.2 to 115.3 |
| CCCNC(=O)C(=O)[C@H](Cc1ccccc1)NC(=O)[C@H](CC(C)C)NC(=O)OCCOC [compound 7, ((1S)-1-((((1S)-1-Benzyl-2,3-dioxo-3-(propylamino)propyl)amino)carbonyl)-3-methylbutyl)carbamic acid 2-methoxyethyl ester] | 108.8 to 109.9 |
| CC(C)C[C@H](NC(=O)OC1CCOCC1)C(=O)N[C@@H](Cc1ccccc1)C(=O)C(=O)NC1CC1 [compound 6, ((1S)-1-((((1S)-1-Benzyl-3-cyclopropylamino-2,3-dioxopropyl)amino)carbonyl)-3-methylbutyl)carbamic acid tetrahydro-4H-pyran-4-yl ester] | 137 to 138.2 |
